Measurements from patent publication US7053178B2, “Synthetic peptides and kits for diagnosis of anti-phospholipid syndrome” (Yeda Research Development Co., LTD, priority 1998, dated 2006).
Where no end group is shown, it is not given here.

Key:
[1] = system: sera of normal donors; assay: ELISA binding of normal donor sera to biotinylated peptides; design: species or system human; conditions: Normal donors (N = 100)
Description: (§1) Binding of sera from patients with primary APS or secondary to SLE to the studied peptides was performed by ELISA. 96-well ELISA plates were coated with streptavidin, blocked with gelatin, incubated with biotinylated peptides (A,B,C,D) and blocked with gelatin. Sera of patients with APS or SLE were added at dilution of 1:50 and the percent of binding was probed with anti-human IgM or IgG conjugated to alkaline phosphatase. Half plate was coated with streptavidin without addition of peptide (for non-specific binding).

[2] = system: affinity purified anti-β2GPI Abs from APS patients; assay: Fractionation of affinity purified anti-β2GPI Abs on peptide columns; type: binding, human
[3] = system: sera of SLE patients; assay: ELISA binding of SLE patient sera to biotinylated peptides; design: species or system human; conditions: SLE patients (N = 72), sera 1:50
Description: as §1

[4] = system: sera of mice immunized with β2GPI; assay: ELISA binding of sera of β2GPI-immunized mice to peptides; design: species or system BALB/c mice; conditions: biotinylated peptide monomers on streptavidin plates, anti-mouse IgG
Description: Sera of immunized mice were screened for the presence of mouse antibodies to peptide A, B and C, by ELISA, with streptavidin-coated plates followed by incubation with biotinylated peptide A, B, and C. Blocked plates (3% gelatin) were exposed to different dilutions of the sera. The binding was probed by anti-mouse IgG alkaline phosphatase.
BALB/c mice were immunized (day 0) in the hindfootpads with 10 μg β2GPI in Complete Freund's Adjuvant (CFA), Three weeks after, the mice received a booster injection of β2GPI in PBS. Sera of the mice (anti-β2GPI) were used to screen peptides for the presence of B cell epitopes, as follows: 96-well ELISA plates were coated with streptavidin overnight at 4° C., followed by incubation with biotinylated peptide monomers A, B, C, or D, β2GPI or BSA in PBS (100 μM) for 2 hours at room temperature. The ELISA plates were blocked with 3% gelatin, and the mouse sera were added thereto at different dilutions. Binding was probed with goat anti-mouse IgG alkaline phosphatase.

[5] = system: sera of APS patients; assay: ELISA binding of APS patient sera to biotinylated peptides; design: species or system human; conditions: APS patients (N = 43), sera 1:50
Description: ELISA streptavidin-coated plates were incubated with biotinylated A, B or C, control peptide D or cocktail of peptides A+B+C. Following blocking with 5% bovine sera, the patient sera were added at dilution of 1:50. The bound antibodies were detected by administration of anti-human IgG or IgM alkaline phosphatase and appropriate substrate.
as §1

[6] = system: affinity purified anti-β2GPI IgM and IgG from APS patients; assay: Competition ELISA: specificity of binding of patient anti-β2GPI IgM and IgG to peptides; design: species or system human; conditions: competition with specific peptide versus cocktail of the other peptides
Description: FIGS. 6A–6C show specificity of binding of affinity purified anti-β2GPI IgM and IgG antibodies from APS patients to the inhibitory monomer peptides A, B and C by ELISA, following preincubation of the tested affinity purified immuno-globulin with or without the peptide or the β2GPI molecule, in fluid phase. FIG. 6A: Affinity purified anti-β2GPI IgM and IgG that recognize peptide A were tested for binding to peptide A following preincubation of the purified antibodies with peptide A, cocktail of peptides B+C+D or β2GPI. Each point represents one patient. FIG. 6B: Affinity purified anti-β2GPI IgM and IgG that recognize peptide B were tested for binding to peptide B following preincubation with peptide B, cocktail of peptides A+C+D or β2GPI. Each point represents one patient. FIG. 6C: Affinity purified anti-β2GPI IgM and IgG that recognize peptide C were tested for binding to peptide C following preincubation with peptide C, cocktail of peptides A+B+D or β2GPI. Each point represents one patient.
The specificity of the recognition of the studied anti-β2GPI epitopes A, B, C by anti-β2GPI Abs from APS patients was confirmed by competition assays in which specificity of binding of anti-β2GPI IgM and IgG from patients with APS to the inhibitory peptides was examined. Anti-β2GPI IgG and IgM affinity purified from APS patients (affinity purification of the antibodies was carried out by incubation of cardiolipin lyposomes with patients' sera overnight at 4° C. with rotation following sedimentation of the complexes (30000 rpm), elution of the bound Abs by KI 1M, extraction from the lyposomes by chloroform, and separation of the total anti-β2GPI IgM, IgG Abs into the different isotypes employing either anti-human-IgM-Sepharose or anti-human-IgG-Sepharose (Pharmacia)) were preincubated with β2GPI (triangles), specific peptide monomer (circles) or a cocktail of the other peptides as monomers (squares), and tested for their binding to the specific biotinylated peptide-coated ELISA plates.

[7] = system: anti-β2GPI ILA-1 mAb; assay: Competition ELISA: inhibition of ILA-1 mAb binding to β2GPI; design: species or system human; conditions: 10 μM peptide concentration
Description: FIGS. 1A–1C are graphs showing inhibition of the anti-β2GPI ILA-1, ILA-3 and G-3 mAbs binding to β2GPI by competition assays using increasing concentrations of the inhibitory monomer peptides A, B and C, respectively, and of unrelated peptide D as control. The percent of inhibition was calculated as follows: % inhibition=O.D control−O.D with inhibitor/O.D control×100. Each point represents mean±SD of three different experiments.
(e) Inhibition of anti-β2GPI mAb binding to β2GPI by the inhibitory peptides. For competition ELISA tests, the anti-β2GPI mAbs (10 μg/ml) were preincubated (overnight at 4° C.) with varying concentrations of the peptides. The competition reaction was then transferred to β2GPI-coated γ-irradiated ELISA plates (Nunc), and the assay continued as described above. The percentage of inhibition was calculated as follows: % inhibition=O.D control −O.D with inhibitor/O.D control×100.
(2a) The specificity of interaction of the mAbs with the corresponding synthetic peptides A, B, C and control peptide D as monomers, was assessed by inhibition experiments as described in Materials and Methods, sections (e) and (f).

Sequence | Percent of sera recognizing the peptide, IgG [1] | Percent of sera recognizing the peptide, IgM [1] | Fraction of anti-β2GPI Abs (in percentage) recognizing the peptide ([2]; APS patient no. 1) | Fraction of anti-β2GPI Abs (in percentage) recognizing the peptide ([2]; APS patient no. 2) | Fraction of anti-β2GPI Abs (in percentage) recognizing the peptide ([2]; APS patient no. 3) | Fraction of anti-β2GPI Abs (in percentage) recognizing the peptide ([2]; APS patient no. 4) | Fraction of anti-β2GPI Abs (in percentage) recognizing the peptide ([2]; APS patient no. 5) | Fraction of anti-β2GPI Abs (in percentage) recognizing the peptide ([2]; APS patient no. 6) | Fraction of anti-β2GPI Abs (in percentage) recognizing the peptide ([2]; APS patient no. 7) | Fraction of anti-β2GPI Abs (in percentage) recognizing the peptide ([2]; APS patient no. 8) | Fraction of anti-β2GPI Abs (in percentage) recognizing the peptide ([2]; APS patient no. 9) | Fraction of anti-β2GPI Abs (in percentage) recognizing the peptide ([2]; APS patient no. 10) | Percent of sera recognizing the peptide, IgG [3] | Percent of sera recognizing the peptide, IgM [3] | reaction with antibodies from mice immunized with β2GPI [4] | Percent of sera recognizing the peptide, IgG [5] | Percent of sera recognizing the peptide, IgM [5] | specificity of recognition of the peptide by anti-β2GPI IgM and IgG from APS patients [6] | inhibition of ILA-1 mAb binding to β2GPI [7] | Percent of sera recognizing the peptide, IgM ([5]; listed as peptide A)
CATLRVYKGG [Peptide C] | 1% | 0% | 0.4 percentage | 3 percentage | 39 percentage | 22 percentage | 1.8 percentage | 23 percentage | 5 percentage | 4.2 percentage | 0.5 percentage | 16.4 percentage | 2.8% | 14% | reacted specifically | 16.3% | 27.9% | recognized specifically | 11% | 
NTLKTPRVGG [Peptide A] | 0% | 2% | 23 percentage | 0.7 percentage | 1.4 percentage | 29 percentage | 0.9 percentage | 29 percentage | 37 percentage | 2.8 percentage | 12 percentage | 0.6 percentage | 5.5% | 11% | reacted specifically | 7% | 20.9% | recognized specifically | 97% | 21%
KDKATFGTHDG [Peptide B] | 0% | 1% | 37 percentage | 15 percentage | 0.5 percentage | 43 percentage | 29 percentage | 14 percentage | 18 percentage | 33 percentage | 1.3 percentage | 7.9 percentage | 11% | 12.5% | reacted specifically | 20.9% | 25.6% | bind specifically | 10% | 
